According to patent US8877769B2, “Heteroaryl-substituted urea modulators of fatty acid amide hydrolase” (Janssen Pharmaceutica NV, priority 2008, dated 2014):

Tests used:
FAAH = target: T1, FAAH (Homo sapiens, UniProt O00519); assay: Assay Method 1: FAAH assay, 3H-anandamide hydrolysis in cell homogenate
T1 sequence (O00519 1-579): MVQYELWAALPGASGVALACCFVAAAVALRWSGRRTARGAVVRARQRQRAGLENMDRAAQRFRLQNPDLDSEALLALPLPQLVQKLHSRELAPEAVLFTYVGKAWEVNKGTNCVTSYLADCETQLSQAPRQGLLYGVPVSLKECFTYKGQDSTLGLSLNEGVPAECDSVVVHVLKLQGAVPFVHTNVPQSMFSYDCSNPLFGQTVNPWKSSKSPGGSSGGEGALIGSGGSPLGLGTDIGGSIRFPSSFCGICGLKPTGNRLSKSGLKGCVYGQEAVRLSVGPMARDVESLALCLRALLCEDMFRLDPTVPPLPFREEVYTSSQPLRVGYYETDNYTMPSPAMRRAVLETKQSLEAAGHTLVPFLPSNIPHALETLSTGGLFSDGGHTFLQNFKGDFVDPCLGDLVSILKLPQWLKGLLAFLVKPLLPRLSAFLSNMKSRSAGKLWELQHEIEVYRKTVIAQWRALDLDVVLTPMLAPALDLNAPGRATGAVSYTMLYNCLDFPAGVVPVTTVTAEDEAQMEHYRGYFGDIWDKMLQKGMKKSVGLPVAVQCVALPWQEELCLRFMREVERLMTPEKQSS
Experimental: The assay mixture consisted of 50 μL of the cell homogenate, 10 μL of the test compound, and 40 μL of anandamide [1-^3H-ethanolamine] (^3H-AEA, Perkin-Elmer, 10.3 Ci/mmol), which was added last, for a final tracer concentration of 80 nM. The reaction mixture was incubated at rt for 1 h. During the incubation, 96-well Multiscreen filter plates (catalog number MAFCNOB50; Millipore, Bedford, Mass., USA) were loaded with 25 μL of activated charcoal (Multiscreen column loader, catalog number MACL09625, Millipore) and washed once with 100 μL of MeOH. […] After the 1 h incubation, 60 μL of the reaction mixture were transferred to the charcoal plates, which were then assembled on top of the DYNEX plates using Centrifuge Alignment Frames (catalog number MACF09604, Millipore). The unbound labeled ethanolamine was centrifuged through to the bottom plate (5 min at 2000 rpm), which was preloaded with the scintillant, as described above. The plates were sealed and left at rt for 1 h before counting on a Hewlett Packard TopCount. • Assay Method 2

Rat FAAH = target: T2, Rat FAAH (Rattus norvegicus, UniProt P97612); assay: Assay Method 2: FAAH assay, 3H-anandamide hydrolysis in cell homogenate; assay type: biochemical; conditions: average of results obtained, > value = solubility limit or highest concentration tested
T2 construct: expressed in transfected cells
T2 sequence (P97612 1-579): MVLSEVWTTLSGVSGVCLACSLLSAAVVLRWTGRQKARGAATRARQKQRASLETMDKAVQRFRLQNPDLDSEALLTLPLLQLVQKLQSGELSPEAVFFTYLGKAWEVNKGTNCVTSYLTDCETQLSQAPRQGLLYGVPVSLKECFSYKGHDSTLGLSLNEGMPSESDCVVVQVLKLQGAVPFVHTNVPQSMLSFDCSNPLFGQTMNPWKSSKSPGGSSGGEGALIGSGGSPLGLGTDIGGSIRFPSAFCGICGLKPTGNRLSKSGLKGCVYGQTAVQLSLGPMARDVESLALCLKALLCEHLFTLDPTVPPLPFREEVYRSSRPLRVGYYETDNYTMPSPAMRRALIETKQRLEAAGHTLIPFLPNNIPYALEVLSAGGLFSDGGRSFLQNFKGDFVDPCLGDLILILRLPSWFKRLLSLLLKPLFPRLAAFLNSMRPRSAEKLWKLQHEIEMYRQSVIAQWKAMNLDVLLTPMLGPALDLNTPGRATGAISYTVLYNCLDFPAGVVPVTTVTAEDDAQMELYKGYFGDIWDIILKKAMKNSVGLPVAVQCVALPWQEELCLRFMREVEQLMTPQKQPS
Experimental: A. Transfection of Cells with Rat FAAH
The assay mixture consisted of 50 μL of the cell homogenate, 10 μL of the test compound, and 40 μL of anandamide [1-^3H-ethanolamine] (^3H-AEA, Perkin-Elmer, 10.3 Ci/mmol), which was added last, for a final tracer concentration of 80 nM. The reaction mixture was incubated at rt for 1 h. During the incubation, 96-well Multiscreen filter plates (catalog number MAFCNOB50; Millipore, Bedford, Mass., USA) were loaded with 25 μL of activated charcoal (Multiscreen column loader, catalog number MACL09625, Millipore) and washed once with 100 μL of MeOH. […] After the 1 h incubation, 60 μL of the reaction mixture were transferred to the charcoal plates, which were then assembled on top of the DYNEX plates using Centrifuge Alignment Frames (catalog number MACF09604, Millipore). The unbound labeled ethanolamine was centrifuged through to the bottom plate (5 min at 2000 rpm), which was preloaded with the scintillant, as described above. The plates were sealed and left at rt for 1 h before counting on a Hewlett Packard TopCount.

Structure (SMILES)	IC50 (FAAH) [nM]	IC50 (Rat FAAH) [nM]
O=C(Nc1cccn2ccnc12)N1CCN(Cc2ccc(OC(F)(F)F)c(Cl)c2)CC1 [Example 53, 4-(3-Chloro-4-trifluoromethoxy-benzyl)-piperazine-1-carboxylic acid imidazo[1,2-a]pyridin-8-ylamide]	1300	120
O=C(Nc1noc2ncccc12)N1CCN(Cc2cnc3ccccc3c2)CC1 [Example 10, 4-Quinolin-3-ylmethyl-piperazine-1-carboxylic acid isoxazolo[5,4-b]pyridin-3-ylamide]	> 10000	> 10000
O=C(Nc1noc2ncccc12)N1CCN(Cc2cc3ccccc3s2)CC1 [Example 28, 4-Benzo[b]thiophen-2-ylmethyl-piperazine-1-carboxylic acid isoxazolo[5,4-b]pyridin-3-ylamide]	6000	> 10000
O=C(Nc1noc2ncccc12)N1CCN(Cc2cc3ccccc3o2)CC1 [Example 31, 4-Benzofuran-2-ylmethyl-piperazine-1-carboxylic acid isoxazolo[5,4-b]pyridin-3-ylamide]	3000	> 10000
O=C(Nc1cccn2ccnc12)N1CCN(Cc2ccc3c(c2)OC(F)(F)O3)CC1 [Example 54, 4-(2,2-Difluoro-benzo[1,3]dioxol-5-ylmethyl)-piperazine-1-carboxylic acid imidazo[1,2-a]pyridin-8-ylamide]	6000	350
O=C(Nc1cnc2[nH]ccc2c1)N1CCC(Cc2ccc(Cl)c(Cl)c2)CC1 [Example 81, 4-(3,4-Dichloro-benzyl)-piperidine-1-carboxylic acid (1H-pyrrolo[2,3-b]pyridin-5-yl)-amide]	3	3

The remaining lines, values ahead:

IC50 (FAAH) [nM]	IC50 (Rat FAAH) [nM]	Structure (SMILES)
> 10000	> 10000	O=C(Nc1noc2ncccc12)N1CCN(Cc2cccc(Oc3ccccc3)c2)CC1 [Example 27, 4-(3-Phenoxy-benzyl)-piperazine-1-carboxylic acid isoxazolo[5,4-b]pyridin-3-ylamide]
470	4000	O=C(Nc1noc2ncccc12)N1CCN(Cc2cccc(Oc3ccc(F)c(C(F)(F)F)c3)c2)CC1 [Example 14, 4-[3-(4-Fluoro-3-trifluoromethyl-phenoxy)-benzyl]-piperazine-1-carboxylic acid isoxazolo[5,4-b]pyridin-3-ylamide]
50	28	Cn1cc2c(NC(=O)N3CCN(Cc4cccc(Oc5ccc(Cl)cc5)c4)CC3)cccc2n1 [Example 65, 4-[3-(4-Chloro-phenoxy)-benzyl]-piperazine-1-carboxylic acid (2-methyl-2H-indazol-4-yl)-amide]
150	300	O=C(Nc1noc2ncccc12)N1CCN(Cc2cccc(Oc3cccc(Br)c3)c2)CC1 [Example 35, 4-[3-(3-Bromo-phenoxy)-benzyl]-piperazine-1-carboxylic acid isoxazolo[5,4-b]pyridin-3-ylamide]
220	4000	CC(C)n1ncc2cc(NC(=O)N3CCN(Cc4cccc(Oc5ccc(Cl)cc5)c4)CC3)cnc21 [Example 62, 4-[3-(4-Chloro-phenoxy)-benzyl]-piperazine-1-carboxylic acid (1-isopropyl-1H-pyrazolo[3,4-b]pyridin-5-yl)-amide]
26	95	Cc1nn(C)c2ncc(NC(=O)N3CCN(Cc4cccc(Oc5ccc(Cl)cc5)c4)CC3)cc12 [Example 64, 4-[3-(4-Chloro-phenoxy)-benzyl]-piperazine-1-carboxylic acid (1,3-dimethyl-1H-pyrazolo[3,4-b]pyridin-5-yl)-amide]
6000	> 10000	O=C(Nc1noc2ncccc12)N1CCN(Cc2cccc(Oc3ccc4ncccc4c3)c2)CC1 [Example 18, 4-[3-(Quinolin-6-yloxy)-benzyl]-piperazine-1-carboxylic acid isoxazolo[5,4-b]pyridin-3-ylamide]
